These results are taken from PMC4527730, “A Pan-GTPase Inhibitor as a Molecular Probe” (PLoS ONE, 2015).

The test system of one assay is H358 cells. In words: CellTiter-Glo viability assay. Particulars: 48 h, compared with U937 FPRΔST control cells. The assay is classed as cell-based. How it is done:
Cells were plated in a 96-well plate at 2000 cells per well and allowed to incubate overnight. Compound 1 or the same volume of DMSO was added on the second day. Viability was examined after 48 h. Data were collected from at least triplicate samples. Results were reported as viability treated/viability untreated (DMSO control). To evaluate apoptosis, the PE Annexin V Apoptosis Kit I was used. In 6-well plates, H358 cells were seeded at 50% confluence, while U937 FPRΔST cells were at 0.02 x 10^6 /mL. After overnight incubation, the cells were treated with compound 1 or DMSO. At 24 h or 48 h, cells were washed with PBS, and resuspended in 100 uL annexin-V binding buffer. After staining with annexin-V-FITC and 7-AAD, cells were analyzed on an Accuri C6 flow cytometer. At least 7,000 cells were measured per individual sample. The annexin^+AAD^- cells are defined as cells undergoing apoptosis. Data were collected from duplicate samples and the experiments were repeated. Results are given as the ratios of the apoptotic populations between the compound-treated and the DMSO-treated cells.
A general note: ATP-based viability assays read luminescence as a measure of living cells.

The test system of assay [1] is integrin VLA-4 on U937 FPRΔST cells. Description: Integrin activation assay (LDV-FITC binding). Particulars: LDV-FITC 4 nM, fMLFF 100 nM. The assay is classed as cell-based. How it is done:
The procedure followed the protocols described previously. U937 FPRΔST cells (0.4~0.8 x 10^6 cells/mL) were continuously stirred with a magnetic stir bar at 500 rpm in a test tube. The fluorescence was recorded on a FACScan flow cytometer. The baseline fluorescence of the cells was established for 30 s. Then LDV-FITC at 4 nM was added. After the fluorescence stabilized at ~120 s, the chemotactic ligand fMLFF at 100 nM was added for stimulation. […] All the concentrations given were the final concentrations. The percent inhibition was calculated according to Equation 1 (Supporting Information).

The next assay addresses Cdc42 Q61L (Homo sapiens, UniProt P60953, Q61L). Description: Multiplex bead-based flow cytometry dose-response of fluorescent guanine nucleotide binding. Conditions: EC50 Cdc42 Q61L. (In flow cytometry, cells or beads pass a laser one at a time.)

Cdc42 Q61L, sequence (P60953 whole entry Q61L): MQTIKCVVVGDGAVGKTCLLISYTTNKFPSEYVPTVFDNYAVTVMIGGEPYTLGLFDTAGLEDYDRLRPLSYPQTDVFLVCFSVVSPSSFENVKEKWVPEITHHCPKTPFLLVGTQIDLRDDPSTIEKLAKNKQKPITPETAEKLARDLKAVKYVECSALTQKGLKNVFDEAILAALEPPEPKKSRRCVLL
Procedure for Cdc42 Q61L: Briefly, individual GST-GTPases were separately attached to glutathione microsphere beads that were labeled with varying intensity of red fluorescent dye, and subsequently combined. The buffer contains 30 mM HEPES (pH 7.2), 150 mM KCl, 20 mM NaCl, 0.1% BSA, 1 mM DTT, 1 mM EDTA and 0.1% NP-40. […] To study whether the compounds are slow binders, BODIPY^- FL GTP was added either immediately or 2 h after compound addition. […] The curves were fitted to the sigmoidal dose-response equation using GraphPad Prism. Percent response was calculated as the ratio of (sample MCF–negative control MCF) / (positive control MCF–negative control MCF).

As a reminder, the EC50 is the concentration giving half of the maximal effect. For the molecule `CC1(C)Cc2c(sc(NC(=S)NC(=O)c3ccccc3)c2C(=O)O)CO1` [Compound 1], the viability result in the assay with H358 cells is “decreased the viability of H358 cells more than the U937 FPRΔST cells”. The “integrin VLA-4 activation (LDV-FITC binding after fMLFF)” value in assay [1] is given as “caused diminished binding”. Besides, the EC50 on Cdc42 Q61L (BODIPY-FL GTP binding, 2 h at 4°C) came out at 47 ± 38 nM; on Cdc42 Q61L (concentration dependence on BODIPY-FL GDP), 350 nM.
